For assay [1], the system named is recombinant and non-replicative HIV virus. Description: Inhibitory effect on HIV infection to MAGI-CCR5 cells (luciferase reporter virus). The class given is cell-based. As for the experimental part:
The inhibitory activity of the compounds of the invention on HIV infection is measured on the human MAGI R5 recombinant cell line coexpressing the human CCR5 receptor and CD4 at their extracellular membrane. MAGI R5 cells are plated in black view plates at 10,000 cells/well and incubated with the appropriate concentrations of the compounds of the invention during 1 hour. This is followed by a 24 hours infection period with the recombinant and non-replicative HIV virus coding for the firefly luciferase (Bona et al., 2006, Antimicrob. Agents Chemother. 50: 3407-3417). The inhibitory effect of the tested compound on virus entry in MAGI R5 cells is measured by a reduction of luciferase signal (TopCount-NXT reader (Packard) and detection luciferase kit: steadylite HTS assay kit (Perkin Elmer)) in the presence of the compound of the invention relative to the maximum signal obtained from cells infected with the virus without any added compound. The results of the tested compounds are reported as the concentration of compound required to inhibit 50% (IC50) of the maximum luciferase signal.
For orientation: Reporter assays use an easily measured gene product as a stand-in for the process of interest.

In assay [2] the target is T1, CCR5 receptor (Homo sapiens, UniProt P51681). Nature of the assay: 125I-MIP-1β binding competition assay. Conditions: membranes of CHO cells expressing human CCR5; 0.05 nM 125I-MIP-1β. On the set-up: expressed in transfected cells; host or cells: membranes of recombinant Chinese hamster ovary (CHO) cells. As for the experimental part:
The ability of the compounds of the invention to inhibit the binding of MIP-1β was assessed by an in vitro radioligand binding assay. Membranes were prepared from Chinese hamster ovary recombinant cells which express the human CCR5 receptor. The membranes were incubated with 0.05 nM ^125I-MIP-1β in a HEPES 25 mM/CaCl2 5 mM/MgCl2 1 mM buffer and various concentrations of the compounds of the invention. The amount of iodinated MIP-1β bound to the receptor was determined after filtration by the quantification of membrane associated radioactivity using the TopCount-NXT reader (Packard). Competition curves were obtained for compounds of the invention and the concentration of compound which displaced 50% of bound radioligand (IC50) was calculated

For assay [3], the target named is T1, CCR5 receptor. Description: Aequorin-based calcium flux assay, agonist mode. The class given is cell-based. Also noted: expressed in transfected cells; host or cells: Chinese hamster ovary (CHO) cells coexpressing apoaequorin and Gα16. As for the experimental part:
(§1) Briefly, Chinese hamster ovary cells expressing the CCR5 receptor are transfected to coexpress apoaequorin and Gα16. Cells are incubated with 5 μM Coelenterazine H (Promega) overnight at room temperature, and resuspended at a concentration of 0.1×10^6 cells/ml. Cells are then mixed with test agonist or antagonist compounds and light emission by the aequorin is recorded with a luminometer (FDSS 6000-Hamamatsu) for 30 sec. Results are expressed as Relative Light Units (RLU). Controls include cells not expressing CCR5 in order to exclude possible non-specific effects of the test compound.
An agonist response is defined as an increase of light emission by aequorin corresponding to 10% or more of the light emitted by a reference sample of cells expressing CCR5 and treated with a the reference agonist ligand MIP-1β.
A general note: Calcium assays in cells follow changes in intracellular calcium, usually with a dye or a luminescent sensor.

Assay [4] has as its target T1, CCR5 receptor. Nature of the assay: Aequorin-based calcium flux assay, antagonist mode (against reference agonist MIP-1β). On all read-outs here: key: Inactive means >30000 nm. The class given is cell-based. Also noted: expressed in transfected cells; host or cells: Chinese hamster ovary (CHO) cells coexpressing apoaequorin and Gα16. Conditions: CHO cells expressing CCR5, vs reference agonist MIP-1β; for IC50: read-out: Aequorin/Ca++ Antagonist assay IC50. As for the experimental part:
as §1
An antagonist response is defined as a decrease of light emission by aequorin of 10% or more in a sample of cells expressing CCR5 stimulated by a reference agonist ligand MIP-1β and treated with the compound of the invention, relative to a sample of cells expressing CCR5 but only treated with the reference agonist ligand MIP-1β.

Setting [5] is: Human immunodeficiency virus 1, MAGI-CCR5, 24 h, read-out: HIV-Infection assay IC50.
[6] abbreviates: CHO cells expressing CCR5, apoaequorin and Gα16, read-out: Aequorin/Ca++ assay EC50.
Where [7] appears, read: CHO cells expressing CCR5, agonistic mode of action.
Setting [8] is: Human immunodeficiency virus 1, MAGI, read-out: IC50 (HIV infection of MAGI R5 cells), range over the listed compounds.
[9] abbreviates: CHO cells expressing CCR5, agonistic mode of action, read-out: Aequorin/Ca++ Agonist assay EC50.

Data on 20 compounds can be found in patent US20090054451A1, “Use of Piperidine Derivatives as Agonists of Chemokine Receptor Activity” (Euroscreen S.A., priority 2007, published 2009).

Each structure is given as a SMILES string. Read-outs that look alike come from different tables or passages of the source.

T1 sequence (P51681 whole entry): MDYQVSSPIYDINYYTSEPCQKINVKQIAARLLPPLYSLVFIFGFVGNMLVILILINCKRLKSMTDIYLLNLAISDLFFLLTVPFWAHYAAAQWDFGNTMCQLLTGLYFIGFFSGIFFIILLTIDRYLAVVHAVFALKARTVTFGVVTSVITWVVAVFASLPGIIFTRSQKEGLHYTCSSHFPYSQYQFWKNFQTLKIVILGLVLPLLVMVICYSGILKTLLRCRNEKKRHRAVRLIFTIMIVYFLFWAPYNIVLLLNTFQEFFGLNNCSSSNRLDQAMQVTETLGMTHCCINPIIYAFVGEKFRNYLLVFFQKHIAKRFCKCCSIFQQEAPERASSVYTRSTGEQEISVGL

Regarding `C[C@H](CN(c1cccc(F)c1)S(=O)(=O)Cc1ccccc1)N1CCC(NC(=O)Cc2ccc(C(F)(F)F)cc2)CC1` [Compound 90], the IC50 in assay [1] (setting [5]) stood at 5.3 nM; in assay [2], 0.7 nM. Further, in assay [3] (setting [6]), the EC50 was 180 nM.

As to `CN(C(=O)C(c1ccccc1)N1Cc2ccccc2C1=O)C1CCN(CCC(c2ccccc2)c2ccccc2)CC1` (centres unmarked) [Compound 62], the “Aequorin/Ca++ Agonist assay EC50” value in assay [3] (setting [7]) is given as “Inactive”. In addition, the IC50 in assay [4] was determined as 1230 nM.

Consider `O=C(Cc1ccc(OC(F)(F)F)cc1)NC1CCN(CCC(c2ccccc2)c2ccccc2)CC1` [Compound 5], for which the IC50 in assay [1] (setting [8]) is 25.6 to 2500 nM; in assay [1] (setting [5]) it was 425 nM; in assay [2], 23.4 nM. Also, the EC50 in assay [3] (setting [6]) was 145 nM.

`C[C@H](CN(c1ccccc1)S(=O)(=O)Cc1ccccc1)N1CCC(NC(=O)Cc2ccc(F)cc2F)CC1` [Compound 113]: in assay [1] (setting [5]), the IC50 came to 4.6 nM. In assay [3] (setting [6]), the EC50 was 29.4 nM.

Turning to `O=C(Cc1ccccc1)NC1CCN(CCC(c2ccccc2)c2ccccc2)CC1` [Compound 7], the IC50 was 25.6 to 2500 nM in assay [1] (setting [8]), 1420 nM in assay [1] (setting [5]) and 26.7 nM in assay [2]. Further, in assay [3] (setting [6]), the EC50 came out at 43.2 nM.

As for `C[C@H](CN(c1cccc(F)c1)S(=O)(=O)Cc1ccccc1)N1CCC(NC(=O)Cc2ccc(F)cc2)CC1` [Compound 97], the IC50 in assay [1] (setting [5]) came to 3 nM; in assay [2], 0.2 nM. Moreover, the EC50 in assay [3] (setting [6]) was 94.4 nM.

`C[C@H](CN(c1cccc(F)c1)S(=O)(=O)Cc1ccccc1)N1CCC(NC(=O)Cc2ccc(F)cc2F)CC1` [Compound 81]: the IC50 in assay [1] (setting [5]) stood at 14.6 nM; in assay [2], 0.2 nM. Also, in assay [3] (setting [6]), the EC50 is 38.1 nM.

In the case of `CC(CC(c1ccccc1)c1ccccc1)N1CCC(NC(=O)Cc2ccc(S(C)(=O)=O)cc2)CC1` (centres unmarked) [Compound 64], the IC50 in assay [1] (setting [8]) is 25.6 to 2500 nM; in assay [1] (setting [5]) it was 25.6 nM; in assay [2], 0.14 nM. Moreover, the EC50 in assay [3] (setting [6]) worked out at 83.4 nM.

On to `N#Cc1ccc(CC(=O)NC2CCN(CCC(c3ccccc3)c3ccccc3)CC2)cc1` [Compound 24], for which the IC50 in assay [1] (setting [8]) is 25.6 to 2500 nM; in assay [1] (setting [5]) it was 384 nM; in assay [2] it was 3.25 nM. For the same compound, the EC50 in assay [3] (setting [6]) was 104 nM.

Consider `O=C(NC1CCN(CCC(c2ccccc2)c2ccccc2)CC1)C(c1ccccc1)N1Cc2ccccc2C1=O` (centres unmarked) [Compound 37], for which, in assay [3] (setting [9]), the EC50 came to 4250 nM. The “Aequorin/Ca++ Antagonist assay IC50” value in assay [4] was “Inactive”.

With `O=C(CN1Cc2ccccc2C1=O)NC1CCN(CCC(c2ccccc2)c2ccccc2)CC1` [Compound 31], the EC50 in assay [3] (setting [9]) is 470 nM. The “Aequorin/Ca++ Antagonist assay IC50” value in assay [4] was “Inactive”.

Take `C[C@H](CN(c1cccc(F)c1)S(=O)(=O)Cc1ccccc1)N1CCC(NC(=O)Cc2ccccc2F)CC1` [Compound 80]: the results for the IC50 in assay [1] (setting [5]) and in assay [2] were 27 nM and 0.8 nM, respectively. For the same compound, the EC50 in assay [3] (setting [6]) came out at 31.3 nM.

On to `CC(CC(c1ccccc1)c1ccccc1)N1CCC(NC(=O)Cc2ccc(C#N)cc2)CC1` (centres unmarked) [Compound 65], for which the IC50 is 25.6 to 2500 nM in assay [1] (setting [8]), 71.7 nM in assay [1] (setting [5]) and 0.64 nM in assay [2]. In assay [3] (setting [6]), the EC50 turned out to be 117 nM.

As to `O=C(Cc1c[nH]c2ccccc12)NC1CCN(CCC(c2ccccc2)c2ccccc2)CC1` [Compound 25], the IC50 in assay [1] (setting [8]) was 25.6 to 2500 nM; in assay [1] (setting [5]), 1130 nM; in assay [2], 67.5 nM. Moreover, the EC50 in assay [3] (setting [6]) was determined as 90.8 nM.

With `O=C(CC1CCCCC1)NC1CCN(CCC(c2ccccc2)c2ccccc2)CC1` [Compound 28], the IC50 turned out to be 2540 nM in assay [1] (setting [5]) and 158 nM in assay [2]. Also, the EC50 in assay [3] (setting [6]) is 620 nM.

Regarding `C[C@H](CN(c1ccccc1)S(=O)(=O)Cc1ccccc1)N1CCC(NC(=O)Cc2ccc(C#N)cc2)CC1` [Compound 93], the results for the IC50 in assay [1] (setting [5]) and in assay [2] were 1.9 nM and 0.5 nM, respectively. Also, the EC50 in assay [3] (setting [6]) is 50.8 nM.

For the compound `COc1ccc(CC(=O)NC2CCN(CCC(c3ccccc3)c3ccccc3)CC2)cc1` [Compound 3], the IC50 in assay [1] (setting [8]) was 25.6 to 2500 nM; in assay [1] (setting [5]), 871 nM; in assay [2], 14.8 nM. Also, the EC50 in assay [3] (setting [6]) is 27.9 nM.

Consider `CS(=O)(=O)c1ccc(CC(=O)NC2CCN(CCC(c3ccccc3)c3ccccc3)CC2)cc1` [Compound 2], for which the IC50 in assay [1] (setting [8]) was 25.6 to 2500 nM; in assay [1] (setting [5]), 345 nM; in assay [2], 6.61 nM. The EC50 in assay [3] (setting [6]) stood at 33.2 nM.

Take `O=C(Cc1ccc(Cl)cc1)NC1CCN(CCC(c2ccccc2)c2ccccc2)CC1` [Compound 1]: the IC50 in assay [1] (setting [8]) is 25.6 to 2500 nM; in assay [1] (setting [5]), 333 nM; in assay [2], 9.32 nM. In addition, the EC50 in assay [3] (setting [6]) came out at 58.8 nM. Further, the “Aequorin/Ca++ Antagonist assay IC50” value in assay [4] is “Inactive”.

Take `CN(C(=O)CN1Cc2ccccc2C1=O)C1CCN(CCC(c2ccccc2)c2ccccc2)CC1` [Compound 63]: the “Aequorin/Ca++ Agonist assay EC50” value in assay [3] (setting [7]) is “Inactive”. In addition, the IC50 in assay [4] came to 1430 nM.
